# Legend:
# Format in all cases: cell-based
# [1] = system: Escherichia coli (ATCC 8739); assay: Minimum Inhibitory Concentration Method (MIC/MBC), broth dilution
# Description: (§1) Minimum Inhibitory Concentration against bacterial S. aureus, P. aeruginosa, E. coli, and fungi A. brasiliensis and C. albicans were determined for Albizia amara seeds extract and the active marker compound bundmunchiamine C. The Minimum Inhibitory Concentration Method (MIC) is carried out following the general microbiological protocol to measure the lowest level of an antimicrobial agent that can inhibit microbial proliferation in liquid. Test microorganisms are prepared in liquid culture medium for bacteria or on agar for fungi. Suspensions of test microorganisms are standardized by dilution in appropriate broth solution, usually Mueller-Hinton broth. The test substance is prepared by conducting several serial 1:1 dilutions in a 96-well microtiter plate or in small test tubes, through Mueller-Hinton broth or other appropriate medium. All wells or tubes containing diluted test substances are inoculated with test microorganisms, individually, resulting in one additional and final dilution of the product in all test vessels. The microtiter plate or test tubes are incubated for 18-24 hours. After the incubation period, observations are made to determine the minimum concentration (MIC) which is the lowest concentration of test substance in a well where no turbidity (indicative of test microorganism growth) is observed and minimum bactericidal concentration (MBC).
# (§2) The Albizia amara seeds extract RN368-31-MIX and budmunchiamine C were tested against five microorganisms required for category 2 including Staphylococcus aureus (ATCC 6538), Escherichia coli (ATCC 8739), Pseudomonas aeruginosa (ATCC 9027), Candida albicans (ATCC 10231), Aspergillus brasiliensis (ATCC 16404).
# [2] = system: Pseudomonas aeruginosa (ATCC 9027); assay: as above
# Description: as §1, §2
# [3] = system: Staphylococcus aureus (ATCC 6538); assay: as above
# Description: as §1, §2
# [4] = system: Aspergillus brasiliensis (ATCC 16404); assay: Minimum Inhibitory Concentration Method (MIC/MBC), broth dilution; FIC index
# Description: (§3) Minimum Inhibitory Concentration against bacterial S. aureus, P. aeruginosa, E. coli, and fungi A. brasiliensis and C. albicans were determined for Albizia amara seeds extract and the active marker compound bundmunchiamine C. The Minimum Inhibitory Concentration Method (MIC) is carried out following the general microbiological protocol to measure the lowest level of an antimicrobial agent that can inhibit microbial proliferation in liquid. Test microorganisms are prepared in liquid culture medium for bacteria or on agar for fungi. Suspensions of test microorganisms are standardized by dilution in appropriate broth solution, usually Mueller-Hinton broth. […]
# (§4) In vitro antifungal combinations are commonly evaluated on the basis of the fractional inhibitory concentration (FIC) index, which represents the sum of the FIC of each substance tested. […]
# (§5) The fractional inhibitory concentration (FIC) was calculated with the equation: FIC of drug A (FIC A)=MIC of drug A in combination/MIC of drug A alone, and FIC of drug B (FIC B)=MIC of drug B in combination/MIC of drug B alone]. The FIC Index (FICI), calculated as the sum of each FIC (YFIC). The calculated index of 1A:1M and 1A:3M against C. albicans were 0.187 and 0.292. […]
# [5] = system: Candida albicans (ATCC 10231); assay: as above
# Description: as §3, §4, §5
# Streptococcus pyogenes = assay: Minimum Inhibitory Concentration Method (MIC/MBC)
substance,measurement,setting,value
budmunchiamine C,MBC Escherichia coli,[1],31.25 µg/mL
same,MIC Escherichia coli,[1]; neutral condition,31.25 µg/mL
same,MBC Pseudomonas aeruginosa,[2],62.5 µg/mL
same,MIC Pseudomonas aeruginosa,[2],62.5 µg/mL
same,MBC Staphylococcus aureus,[3],31.25 µg/mL
same,MIC Staphylococcus aureus,[3],31.25 µg/mL
same,MIC Aspergillus brasiliensis,[4],125 µg/mL
same,MBC Candida albicans,[5],125 µg/mL
same,MIC Streptococcus pyogenes,Streptococcus pyogenes,< 0.97 µg/mL

# From US12161686B2, “Natural preservatives and antimicrobial agents, including compositions thereof” (Unigen, Inc., priority 2015, dated 2024)
